In article PMC8997848, “How Cargo Identity Alters the Uptake of Cell-Penetrating Peptide (CPP)/Cargo Complexes: A Study on the Effect of Net Cargo Charge and Length” (Cells, 2022):

How the values were obtained:
HeLa cells [1] = assay: Live-cell fluorescent microscopy with line scans of intracellular peptide distribution; format: cell-based; details: for intracellular distribution of fluorescence / cellular uptake seen by fluorescence microscopy: 10 μM peptide, 60 min, 37 °C; for intracellular distribution of fluorescence: images and line scans across individual cells (Figures 3, 4, S8); for cellular uptake seen by fluorescence microscopy: FITC filter (Figure 3)
Experimental: One day prior to the experiment, HeLa cells were seeded in 8-chambered Falcon Culture Slides (Corning) at a density of 3 × 10^4 cells/mL. On the day of the experiment, cells were washed once with ECB before incubation with 10 μM peptide solution (500 μL/well) for 1 h at 37 °C. Following incubation, cells were washed twice with ECB then incubated with 8 μM Hoechst 3342 nuclei acid stain (ThermoFisher Scientific, Carlsbad, CA, USA) for 20 min at room temperature. Cellular fluorescence was visualized using a Leica DMi8 inverted microscope outfitted with a 40× objective (Leica N PLAN L, 0.55× correction). Images were acquired using the digital CMOS camera C11440 (Hamamatsu Photonics K.K., Japan) with a fixed exposure time of 500 ms for the FITC filter, 150 ms for the DAPI filter, and 20 ms for brightfield. The following excitation/emission filters (Chroma Tech. Corp, Bellows Falls, VT, USA) were used to image the device: fluorescein isothiocyanate-FITC (λex 440–520 nm and λem 497–557 nm) for capturing the signal from FAM and DAPI (λex 335–385 nm and λem 405–465 nm) for capturing the signal from the Hoescht stain. Image acquisition was controlled using the Leica Application Suite software (LAS X, version 3.7.4.23463), where all images were recorded using the same parameters. The imaging was followed by quantitative analysis, where a manual line scan region of interest (ROI) was drawn across the center of the cells to quantify their fluorescent signals. Random ROIs were also drawn in free space not containing cells to measure background noise for each image. The fluorescent values were normalized by subtracting the noise from the measured signal.

HeLa cells [2] = details: cited from earlier work
Excerpt: In addition to improving the permeability and stability of the CPPs themselves, there is significant interest in utilizing known CPPs to deliver bioactive cargoes, such as nanoparticles, therapeutics, or biosensors, to cells. CPPs have found great success of late as delivery vehicles for peptide-based therapeutics, such as PROTACs (proteolysis targeting chimeras), which facilitate the degradation of “undruggable” proteins by selectively ubiquitinating the target protein for proteasome-mediated degradation. […] With the majority of well characterized CPPs being unstructured, and considering the differences in uptake levels, cytotoxicity, and intracellular stability that has been observed when comparing unstructured and structured CPPs, it was important to compare the effects of net cargo charge and length on both unstructured (nona-arginine, R1) and structured (RWRWR, H1) CPPs. To examine the ...

HeLa cells [3] = assay: Quantification of CPP and CPP/cargo uptake by fluorometry of FAM signal in cell lysate; format: cell-based; details: for time dependence of uptake (single factor ANOVA): 10 µM peptide, 10, 20, 40, 60, 100, 120 min, triplicate (Tables S1, S6); for time-dependent analysis of peptide uptake (in words): 10-120 min, triplicate (Figures S5, S7); for uptake of CPP/cargo complex compared to the H1 CPP alone (in words) / effect of net cargo length and arginine position on cellular uptake (one-way ANOVA): 10 µM; for uptake of CPP/cargo complex compared to the H1 CPP alone (in words): uptake normalized against H1, triplicate (Figure 1A); for effect of net cargo length and arginine position on cellular uptake (one-way ANOVA): 1 h, cargoes of +2 charge, 4 or 8 residues, triplicate (Figure 1B, Table S3)
Experimental: The quantification of peptide uptake was performed using a protocol previously utilized by Safa et al. and Vaithiyanathan et al.. Three days prior to the experiment, HeLa cells were seeded at a density of 1 × 10^4 cells/mL in 12 well plates. Prior to experiments, peptides were reconstituted in sodium phosphate buffer (2.26 mM NaH2PO4·H2O and 8.43 mM Na2HPO4·7H2O) and the peptide concentration was determined using a NanoDrop at the wavelength of 492 nm using the UV-vis function. On the day of the experiment, peptides were diluted to the desired final concentration with extracellular buffer, ECB (5.036 mM HEPES pH 7.4, 136.89 mM NaCl, 2.68 mM KCl, 2.066 mM MgCl2·6H2O, 1.8 mM, CaCl2·2H2O, and 5.55 mM glucose). Cells were washed once with PBS followed by peptide incubation (500 μL/well) at 37 °C. Plates were wrapped in aluminum foil during incubation to avoid deactivating the FAM tag on the peptide. Following the incubation, the peptide solutions were removed, and cells were washed twice with ECB. Cells were then trypsinized (250 μL/well) for 10 min at room temperature. The cells were resuspended in ECB (1 mL/well) and transferred to microcentrifuge tubes. The samples were centrifuged at 1800 rcf for 2.5 min. The supernatant was removed, and the isolated cells were lysed with 0.1 M NaOH (250 μL/tube). Samples were centrifuged again at 14,000 rcf for 5 min to remove any remaining protein bound to the membranes before transferring 150 μL of clarified lysate to a 96 well plate. Fluorometry (Perkin Elmer (Waltham, MA, USA) Wallac 1420 VICTOR2 multilabel HTS counter) was used to quantify the signal resulting from the FAM tag using an excitation filter of 490 nm and an emission filter of 535 nm. For each experiment, a no peptide control (cells incubated with ECB only) was performed. To measure the background signal of each peptide, the peptide solutions used in each experiment were analyzed by fluorometry to normalize the fluorescent signal for each sample. Signals were normalized using Equation (1):Normalized Fluorescence = 1000 × (F − C)/(P − B)(1) where F denotes the fluorescent signal of cells incubated with peptide, C denotes the fluorescent signal of cells incubated with no peptide, P denotes the average fluorescent signal of the peptide in suspension, and B denotes the average fluorescent signal of the ECB. Reported data for each experiment is the average of triplicate samples. Statistical analysis was carried out using JMP Pro 16 software (SAS Institute).

HeLa cells [4] = assay: alamarBlue cell viability assay; format: cell-based; details: 37 °C, 4 h (2 h in method and Figure 2), then alamarBlue 4 h, normalized to no peptide control, triplicate; for effect on cellular viability at 5 µM: HeLa cells, 5 µM peptide; for decrease in cellular viability: HeLa cells, 10, 20, and 30 μM peptide
Experimental: Two days prior to the experiment, HeLa cells were plated at a density of 1 × 10^5 cells/well in a 96 well plate. Cells were washed once with PBS and incubated with peptide solutions for 2 h at 37 °C. Following this incubation period, cells were washed with ECB and incubated with a mixture of 10 μL alamarBlue Viability Reagent (ThermoFisher Scientific, Carlsbad, CA, USA) in 90 μL serum-free media for 4 h at 37 °C. The fluorescent signal of alamarBlue was measured using fluorometry with an excitation filter of 532 nm and an emission filter of […]. A no peptide control was also performed to normalize the fluorescent signals. Signals were normalized using Equation (2):Normalized Cell Viability = F/C(2) where F denotes the fluorescent signal of cells incubated with peptide and C denotes the fluorescent signal of cells incubated with no peptide. The reported data are the average of triplicate samples.

[5] = cited from earlier work
Excerpt: With the majority of well characterized CPPs being unstructured, and considering the differences in uptake levels, cytotoxicity, and intracellular stability that has been observed when comparing unstructured and structured CPPs, it was important to compare the effects of net cargo charge and length on both unstructured (nona-arginine, R1) and structured (RWRWR, H1) CPPs. To examine the ...

[6] = 10 µM peptide, 60 min, 37 °C, FAM fluorometry of lysate, triplicate (Figure 5)
[7] = 10 µM peptide, FAM fluorometry of lysate

In the case of “FAM-RRRRRRRRR [R1, unstructured nona-arginine CPP, FAM labelled; commercial peptide ARG from AnaSpec, reference compound]”, the “intracellular distribution of fluorescence” value (“intracellular distribution” for short) (HeLa cells [1]) is given as “punctate regions” and the “uptake efficiency compared to the RWRWR (H1) CPP” value (HeLa cells [2]) is given as 2 fold.
For “FAM-RRRRRRRRR-GGGGGGGG [R4, nona-arginine CPP with 8-residue neutral cargo]”, the “decrease in cellular internalization compared to R1 CPP” value (HeLa cells [3]; [6]) was 50%.
For “FAM-RRRRRRRRR-GRGR [R2, nona-arginine CPP with 4-residue cargo GRGR, net charge +2]”, the “time dependence of uptake (single factor ANOVA)” value (shortened to “time dependence of uptake”) (HeLa cells [3]) was “time-dependent”, the “time-dependent analysis of peptide uptake (in words)” value (“time-dependent analysis” for short) (HeLa cells [3]; [7]) was “greater uptake that the R1 CPP” and the “increase in uptake compared to counterpart with H1 CPP (H2 and H5, respectively)” value (HeLa cells [3]; [6]) was 140%. For the same substance, the “increase in uptake compared to the R1 CPP” value (HeLa cells [3]; [6]) was 29%.
In the case of “FAM-RRRRRRRRR-GRGRGRGR [R3, nona-arginine CPP with 8-residue cargo, net charge +4]”, the “time dependence of uptake” value (HeLa cells [3]) is reported as “time-dependent”, the “time-dependent analysis” value (HeLa cells [3]; [7]) is reported as “greater uptake that the R1 CPP” and the “increase in uptake compared to counterpart with H1 CPP (H2 and H5, respectively)” value (HeLa cells [3]; [6]) is reported as 140%. For the same substance, the “increase in uptake compared to the R1 CPP” value (HeLa cells [3]; [6]) was 103%.
For “RWVRVpGO(FAM)WIRQ [H1, RWRWR β-hairpin CPP, FAM on ornithine side chain]”, the “time dependence of uptake” value (HeLa cells [3]) was “demonstrate time dependence”, the “time-dependent analysis” value (HeLa cells [3]; [7]) was “greatest penetration” and the “effect on cellular viability at 5 µM” value (HeLa cells [4]) was “did not result in a decrease in cellular viability”. For the same substance, the “decrease in cellular viability” value (HeLa cells [4]) was ~ 5%, the “cellular uptake seen by fluorescence microscopy” value (from here on “cellular uptake seen”) (HeLa cells [1]) was “successful cellular uptake” and the “intracellular distribution” value (HeLa cells [1]) was “evenly distributed throughout the cell”. For the same substance, the “time needed for uptake / sufficient internalization” value (HeLa cells [2]; HeLa cells) was < 10 min and the “increased intracellular stability compared to nona-arginine CPP” value [5] was 20 fold.
For “RWVRVpGO(FAM)WIRQ-GEGE [H4, H1 CPP with 4-residue cargo GEGE, net charge −2]”, the “time dependence of uptake” value (HeLa cells [3]) was “demonstrate time dependence” and the “uptake of CPP/cargo complex compared to the H1 CPP alone (in words)” value (HeLa cells [3]; 60 min, 37 °C) was “diminished uptake”.
For “RWVRVpGO(FAM)WIRQ-GEGEGEGE [H7, H1 CPP with 8-residue cargo, net charge −4]”, the “time dependence of uptake” value (HeLa cells [3]) was “no time dependence”, the “uptake of CPP/cargo complex compared to the H1 CPP alone (in words)” value (HeLa cells [3]; 60 min, 37 °C) was “diminished uptake” and the “cellular uptake seen” value (HeLa cells [1]) was “impermeability”.
With “RWVRVpGO(FAM)WIRQ-GGGG [H3, H1 CPP with 4-residue cargo GGGG, net charge 0]” the “time dependence of uptake” value (HeLa cells [3]) was “no time dependence” and the “uptake of CPP/cargo complex compared to the H1 CPP alone (in words)” value (HeLa cells [3]; 60 min, 37 °C) was “diminished uptake”.
In the case of “RWVRVpGO(FAM)WIRQ-GGGGGGGG [H6, H1 CPP with 8-residue cargo, net charge 0]”, the “time dependence of uptake” value (HeLa cells [3]) is reported as “demonstrate time dependence” and the “uptake of CPP/cargo complex compared to the H1 CPP alone (in words)” value (HeLa cells [3]; 60 min, 37 °C) is reported as “diminished uptake”.
In the case of “RWVRVpGO(FAM)WIRQ-GGGGGRGR [H8, H1 CPP with 8-residue +2 cargo, arginines closer to the C-terminus]”, the “effect of net cargo length and arginine position on cellular uptake (one-way ANOVA)” value (shortened to “effect … (one-way ANOVA)”) (HeLa cells [3]) is reported as “no significant difference in cellular uptake”.
For “RWVRVpGO(FAM)WIRQ-GRGR [H2, H1 CPP with 4-residue cargo GRGR, net charge +2]”, the “time dependence of uptake” value (HeLa cells [3]) was “demonstrate time dependence”, the “time-dependent analysis” value (HeLa cells [3]; [7]) was “greatest penetration” and the “effect … (one-way ANOVA)” value (HeLa cells [3]) was “no significant difference in cellular uptake”. The “effect on cellular viability at 5 µM” value (HeLa cells [4]) was “did not result in a decrease in cellular viability” and the “decrease in cellular viability” value (HeLa cells [4]) was ~ 5%.
With “RWVRVpGO(FAM)WIRQ-GRGRGGGG [H9, H1 CPP with 8-residue +2 cargo, arginines closer to the N-terminus]” the “effect … (one-way ANOVA)” value (HeLa cells [3]) was “no significant difference in cellular uptake”.
With “RWVRVpGO(FAM)WIRQ-GRGRGRGR [H5, H1 CPP with 8-residue cargo, net charge +4]” the “increase in CPP/cargo uptake on increasing arginine residues from 2 (H2) to 4 (H5)” value (HeLa cells [3]; 10 µM peptide in ECB, 60 min, 37 °C, trypsinized, lysed in 0.1 M NaOH, FAM fluorometry ex 490/em 535 nm, average of triplicate, compared to H2) was 58%, the “time dependence of uptake” value (HeLa cells [3]) was “demonstrate time dependence” and the “time-dependent analysis” value (HeLa cells [3]; [7]) was “greatest penetration”. The “effect on cellular viability at 5 µM” value (HeLa cells [4]) was “did not result in a decrease in cellular viability”, the “decrease in cellular viability” value (HeLa cells [4]) was ~ 5% and the “cellular uptake seen” value (HeLa cells [1]) was “successful cellular uptake”. For the same substance, the “intracellular distribution” value (HeLa cells [1]) was “punctate regions of increased fluorescence”, the “cell-to-cell heterogeneity of uptake compared to cells incubated with H1” value (HeLa cells [1]; 10 μM, average fluorescence intensity in individual cells (Figure S6)) was “substantially higher heterogeneity” and the “average uptake from single-cell fluorescence intensity compared to H1” value (HeLa cells [1]; 10 μM, line scans across 20 single cells, normalized against background (Figure S6)) was “substantially higher average uptake”.
